Assay results taken from PMC7782793, “Hydroxamic acid-modified peptide microarrays for profiling isozyme-selective interactions and inhibition of histone deacetylases” (Nature Communications, 2021).
Several values for one entry are separate records, joined by “and”; a condition that tells them apart may be missing. Equal values may be shown once. Marks after values point to notes of the source that are not given here. Non-standard residues stand in square brackets, D forms with d. Residues, ends and D or L forms follow the SMILES beside them. *: point of attachment. Asu = N[C@@H](CCCCCC(=O)O)C(=O)O; NHOH = ON*

How the values were obtained:
HDAC3/NCoR2 [1] = molecular target: T1, HDAC3/NCoR2 (Homo sapiens, UniProt O15379); test: HDAC inhibition assay (fluorogenic, Ac-Leu-Gly-Lys(Ac)-AMC); assay type: biochemical; settings: for HDAC3 dose-response data (relative enzyme activity), Fig. 6 + S. Fig. 10: duplicate columns
T1 construct: HDAC3/NCoR2 (full length, C-terminal His tag, NCoR2 N-terminal GST tag); purchased BPS Bioscience 50003

HDAC2 [2] = molecular target: T2, HDAC2 (Homo sapiens, UniProt Q92769); test: Recombinant HDAC µSPOT microarray binding assay;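 note: Cellulose-bound peptide spots on slides incubated with six HDAC enzyme concentrations, binding intensity read, four-parameter variable-slope fit, EC50 is enzyme concentration giving half-maximal binding, in HEPES buffer pH 7.4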
T2 construct: HDAC2 (full length, C-terminal His tag, BPS Bioscience, cat. #: 50002); purchased BPS Bioscience 50002

HDAC1 [3] = molecular target: T3, HDAC1 (Homo sapiens, UniProt Q13547); test: Recombinant HDAC µSPOT microarray binding assay;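 note: slides with spotted peptides incubated with six HDAC concentrations in HEPES buffer pH 7.4, spot intensities fitted by four-parameter logistic, EC50 as enzyme concentration giving half-maximal binding signal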
T3 construct: HDAC1 (full length, C-terminal His tag, C-terminal FLAG tag, BPS Bioscience, cat. #: 50051); FLAG (C); purchased BPS Bioscience 50051
Method: (§1) Experiments were performed twice, data were obtained with Array Analyze software (Active Motif), and data analysis and representation were performed with the GraphPad Prism 7 software. Outliers were curated manually and data were fitted to nonlinear regression [log(agonist) vs. response—variable slope (four parameters)]. […] Non-sigmoidal curves were denoted as not determined (N.D.) The pEC50 values were determined as the concentration of HDAC enzyme required for half-maximal binding signal.

HDAC8 = molecular target: T4, HDAC8 (Homo sapiens, UniProt Q9BY41); test: Recombinant HDAC µSPOT microarray binding assay;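 note: peptide µSPOT slides incubated with varying HDAC enzyme concentrations, imaged signal intensity fitted by four-parameter variable-slope regression, EC50 is enzyme concentration giving half-maximal binding, pH 7.4 HEPES buffer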
T4 construct: HDAC8 (full length, C-terminal His tag, BPS Bioscience, cat. #: 50008); purchased BPS Bioscience 50008
T4 sequence (Q9BY41 1-377): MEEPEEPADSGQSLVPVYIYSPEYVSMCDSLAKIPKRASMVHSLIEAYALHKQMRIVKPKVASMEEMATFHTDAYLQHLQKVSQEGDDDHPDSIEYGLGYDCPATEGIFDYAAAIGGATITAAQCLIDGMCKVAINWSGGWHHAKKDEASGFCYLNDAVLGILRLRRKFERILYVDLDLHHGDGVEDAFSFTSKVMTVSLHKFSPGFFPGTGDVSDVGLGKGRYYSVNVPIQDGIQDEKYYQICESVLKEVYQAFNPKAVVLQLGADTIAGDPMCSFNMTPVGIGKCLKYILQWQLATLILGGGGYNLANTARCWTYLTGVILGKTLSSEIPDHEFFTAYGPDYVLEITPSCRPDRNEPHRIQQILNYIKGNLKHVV
Method: as §1

HDAC2 [4] = molecular target: T2, HDAC2; test: HDAC inhibition assay (fluorogenic, Ac-Leu-Gly-Lys(Ac)-AMC); assay type: biochemical; settings: for HDAC2 dose-response data (relative enzyme activity), Fig. 6 + S. Fig. 10: duplicate columns
HDAC1 [5] = molecular target: T3, HDAC1; test: as above; assay type: biochemical; settings: for HDAC1 dose-response data (relative enzyme activity), Fig. 6 + S. Fig. 10: duplicate columns
HDAC3/NCoR2 [6] = molecular target: T1, HDAC3/NCoR2; test: Recombinant HDAC µSPOT microarray binding assay;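 note: peptide spots on cellulose slides incubated with rising HDAC enzyme concentrations, imaged together, four-parameter logistic fit, EC50 is enzyme concentration giving half-maximal binding signal, two experiments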
[7] = log[inhibitor(M)] -10,5850266520292*, whole line marked with asterisks

T3 sequence (Q13547 whole entry): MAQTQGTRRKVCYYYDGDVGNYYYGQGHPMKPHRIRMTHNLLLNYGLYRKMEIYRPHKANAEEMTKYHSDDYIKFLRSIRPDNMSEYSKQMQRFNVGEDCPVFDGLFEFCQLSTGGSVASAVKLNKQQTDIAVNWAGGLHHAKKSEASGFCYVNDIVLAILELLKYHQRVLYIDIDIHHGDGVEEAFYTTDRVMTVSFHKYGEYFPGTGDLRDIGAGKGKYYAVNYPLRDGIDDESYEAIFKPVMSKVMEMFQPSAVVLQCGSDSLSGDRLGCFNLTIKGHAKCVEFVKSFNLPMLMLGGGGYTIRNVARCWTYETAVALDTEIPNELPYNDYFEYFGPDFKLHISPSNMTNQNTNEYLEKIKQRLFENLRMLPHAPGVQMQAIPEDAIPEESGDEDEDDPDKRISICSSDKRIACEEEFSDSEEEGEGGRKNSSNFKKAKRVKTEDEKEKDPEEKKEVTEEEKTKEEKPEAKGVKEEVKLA
T1 sequence (O15379 whole entry): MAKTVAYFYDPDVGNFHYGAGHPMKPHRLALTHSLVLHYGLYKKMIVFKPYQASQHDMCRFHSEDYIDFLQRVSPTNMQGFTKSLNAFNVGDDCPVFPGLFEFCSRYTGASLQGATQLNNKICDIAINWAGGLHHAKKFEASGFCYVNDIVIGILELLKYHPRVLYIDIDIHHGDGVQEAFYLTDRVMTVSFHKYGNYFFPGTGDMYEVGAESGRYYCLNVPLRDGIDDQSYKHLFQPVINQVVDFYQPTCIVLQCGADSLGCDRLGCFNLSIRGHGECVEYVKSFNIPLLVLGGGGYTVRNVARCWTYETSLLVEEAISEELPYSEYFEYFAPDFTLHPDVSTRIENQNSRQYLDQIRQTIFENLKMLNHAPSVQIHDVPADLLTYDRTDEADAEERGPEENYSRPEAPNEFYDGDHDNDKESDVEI
T1 sequence (Q9Y618 389-480 partner limits assumed): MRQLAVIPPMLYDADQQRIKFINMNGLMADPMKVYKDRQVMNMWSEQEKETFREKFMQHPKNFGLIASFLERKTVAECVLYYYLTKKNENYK
T2 sequence (Q92769 whole entry): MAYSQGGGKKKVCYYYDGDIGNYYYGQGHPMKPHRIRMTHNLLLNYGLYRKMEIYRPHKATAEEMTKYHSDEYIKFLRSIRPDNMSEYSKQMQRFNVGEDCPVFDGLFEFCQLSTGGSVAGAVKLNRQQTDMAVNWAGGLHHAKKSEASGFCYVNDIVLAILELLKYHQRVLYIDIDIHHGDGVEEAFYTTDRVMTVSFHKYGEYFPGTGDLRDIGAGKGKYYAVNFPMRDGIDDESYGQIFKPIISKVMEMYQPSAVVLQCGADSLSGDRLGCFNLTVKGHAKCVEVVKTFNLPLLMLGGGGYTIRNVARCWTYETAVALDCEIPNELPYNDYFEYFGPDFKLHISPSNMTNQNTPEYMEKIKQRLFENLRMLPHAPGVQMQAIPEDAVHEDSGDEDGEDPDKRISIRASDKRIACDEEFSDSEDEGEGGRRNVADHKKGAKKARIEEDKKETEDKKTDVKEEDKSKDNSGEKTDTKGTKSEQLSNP

## CC[C@H](C)[C@H](NC(=O)[C@H](CCC(=O)O)NC(=O)[C@H](CCCNC(=N)N)NC(=O)[C@H](CO)NC(=O)[C@@H](NC(=O)[C@@H](NC(=O)[C@@H](NC(=O)[C@H](CO)NC(=O)[C@H](CCCNC(=N)N)NC(=O)[C@H](CCCCCC(=O)NO)NC(=O)[C@H](CC(N)=O)NC(=O)[C@H](Cc1ccc(O)cc1)NC(=O)[C@H](Cc1c[nH]cn1)NC(C)=O)[C@@H](C)O)[C@@H](C)CC)[C@@H](C)O)C(=O)N[C@@H](CCC(N)=O)C(=O)N[C@H](C(=O)N[C@@H](C)C(=O)N[C@@H](Cc1c[nH]c2ccccc12)C(N)=O)[C@@H](C)O [12a] (Ac-HYN[Asu](NHOH)RSTITSREIQTAW-NH2)
HDAC3/NCoR2 [1]; log[inhibitor(M)] -7.09691
  HDAC3 dose-response data (relative enzyme activity), Fig. 6 + S. Fig. 10: 38.5352 and 35.6199
HDAC3/NCoR2 [1]; log[inhibitor(M)] -7.79588
  HDAC3 dose-response data (relative enzyme activity), Fig. 6 + S. Fig. 10: 73.2464 and 64.9902
HDAC3/NCoR2 [1]; log[inhibitor(M)] -8.49485
  HDAC3 dose-response data (relative enzyme activity), Fig. 6 + S. Fig. 10: 93.6652 and 87.0389
HDAC3/NCoR2 [1]; log[inhibitor(M)] -9.19382
  HDAC3 dose-response data (relative enzyme activity), Fig. 6 + S. Fig. 10: 96.2351 and 93.241
HDAC3/NCoR2 [1]; log[inhibitor(M)] -9.89279
  HDAC3 dose-response data (relative enzyme activity), Fig. 6 + S. Fig. 10: 95.5729 and 96.0845
HDAC3/NCoR2 [1]; [7]
  HDAC3 dose-response data (relative enzyme activity), Fig. 6 + S. Fig. 10: 103,997369* and 102,157851*
HDAC3/NCoR2 [1]; resynthesized peptides, from Ki
  selectivity for HDAC3 vs. HDACs 1 and 2: ~ 2 fold
HDAC2 [2]
  EC50: > 25.1 nM
HDAC1 [3]
  EC50: > 25.1 nM
HDAC8
  EC50: > 25.1 nM
HDAC2 [4]; log[inhibitor(M)] -5
  HDAC2 dose-response data (relative enzyme activity), Fig. 6 + S. Fig. 10: 3.067 and 2.914
HDAC2 [4]; log[inhibitor(M)] -5.69897
  HDAC2 dose-response data (relative enzyme activity), Fig. 6 + S. Fig. 10: 11.3787 and 10.2695
HDAC2 [4]; log[inhibitor(M)] -7.79588
  HDAC2 dose-response data (relative enzyme activity), Fig. 6 + S. Fig. 10: 90.7701 and 92.8679
HDAC2 [4]; [7]
  HDAC2 dose-response data (relative enzyme activity), Fig. 6 + S. Fig. 10: 102,18881* and 100,790249*
HDAC2 [4]; resynthesized peptide in solution, Cheng-Prusoff, n = 2
  Ki: 23.8 ± 0.1 nM
HDAC1 [5]
  Ki: 27.1 ± 0.1 nM
HDAC1 [5]; log[inhibitor(M)] -4.30103
  HDAC1 dose-response data (relative enzyme activity), Fig. 6 + S. Fig. 10: 0.9347 and 0.662
HDAC1 [5]; log[inhibitor(M)] -5
  HDAC1 dose-response data (relative enzyme activity), Fig. 6 + S. Fig. 10: 2.038 and 1.878
HDAC1 [5]; log[inhibitor(M)] -5.69897
  HDAC1 dose-response data (relative enzyme activity), Fig. 6 + S. Fig. 10: 7.98 and 7.034
HDAC1 [5]; log[inhibitor(M)] -6.39794
  HDAC1 dose-response data (relative enzyme activity), Fig. 6 + S. Fig. 10: 27.0557 and 22.8999
HDAC1 [5]; log[inhibitor(M)] -7.09691
  HDAC1 dose-response data (relative enzyme activity), Fig. 6 + S. Fig. 10: 60.7171 and 55.9643
HDAC1 [5]; log[inhibitor(M)] -7.79588
  HDAC1 dose-response data (relative enzyme activity), Fig. 6 + S. Fig. 10: 89.3741 and 84.8138
HDAC1 [5]; log[inhibitor(M)] -8.49485
  HDAC1 dose-response data (relative enzyme activity), Fig. 6 + S. Fig. 10: 97.3199 and 95.6638
HDAC1 [5]; log[inhibitor(M)] -9.19382
  HDAC1 dose-response data (relative enzyme activity), Fig. 6 + S. Fig. 10: 101.477 and 97.552
HDAC1 [5]; log[inhibitor(M)] -9.89279
  HDAC1 dose-response data (relative enzyme activity), Fig. 6 + S. Fig. 10: 101.081 and 96.9441
HDAC1 [5]; [7]
  HDAC1 dose-response data (relative enzyme activity), Fig. 6 + S. Fig. 10: 100,220716* and 99,6623992*
HDAC3/NCoR2 [6]
  EC50: 2.57 nM
